Reference: article PMC11288129, “Diversely evolved xibalbin variants from remipede venom inhibit potassium channels and activate PKA-II and Erk1/2 signaling” (BMC Biology, 2024)
Positions of bridges follow the written chain, without caps; N, C: chain ends. No end group written: not given here.

Legend:
hKv2.1 = test: TEVC inhibition, Kv2.1; assay type: cell-based, human; set-up: unit not given here; conditions: 1 µM
Excerpt: (§1) For the expression of Kv channels rat Kv1.1 (GenBank accession number: NM_173095 [88, 89]), rKv1.2 (NM_012970 [90, 91]), human Kv1.3 (NM_002232 [92, 93]), rKv1.4 (NM_012971 [94, 95]), rKv1.6 (NM_023954 [96, 97]), hKv2.1 (NM_004975 [98, 99]), hKv3.1 (NM_004976 [100, 101]), rKv4.2 (NM_031739 [102, 103]), hKv10.1 (NM_172362 [104, 105]), hERG1 [Kv11.1, (NM_000238 [106, 107])], and Shaker IR [from Drosophila melanogaster, (NM_167595 [108, 109])], Nav channels [rNav1.2 (NM_012647 [42, 110]), rNav1.4 (NM_013178 [111, 112]), hNav1.5 (NM_198056 [113, 114]), mNav1.6 (NM_001077499 [115, 116]), BgNav [from Blattella germanica, (DQ466887 [117, 118])] and the auxiliary subunits rβ1 (NM_001271045 [119, 120]), hβ1 (NM_001037 [121, 122]), and TipE [from D. melanogaster, (NM_079196 [109, 123])], and Cav channels hCav3.1 [124, 125], hCav3.2 [126, 127], and hCav3.3 [128, 129] in Xenopus oocytes, the linearized plasmids were transcribed using the T7 or SP6 mMESSAGEmMACHINE transcription kit (Ambion, Austin, TX, USA). Mature female animals were purchased from Nasco (Fort Atkinson, USA) and were housed in the Aquatic Facility (KU Leuven) in compliance with the regulations of the European Union (EU) concerning the welfare of laboratory animals as declared in Directive 2010/63/EU. The use of X. laevis oocytes was approved by the Animal Ethics Committee of the KU Leuven with the license number P186/2019. Stage V–VI oocytes were collected from anesthetized female X. laevis frog as previously described, with the frogs anesthetized by placement in 0.1% tricaine solution (amino benzoic acid ethyl ester; Merck, USA). Oocyte microinjection was performed using a microinjector (Drummond Scientifc®, USA), with a programmed cRNA injection volume of 4—50 nL, depending on the channel subtype. The oocytes were incubated in ND96 solution (96 mM NaCl, 2 mM KCl, 1.8 mM CaCl2, 2 mM MgCl2, and 5 mM HEPES, pH 7.4), supplemented with 50 mg/l gentamicin sulfate.
(§2) Electrophysiological measurements were performed at room temperature (18–22 °C) using the two-electrode voltage clamp (TEVC) technique. Data were obtained using a GeneClamp 500 amplifier (Axon Instruments, USA), and Clampex9 software (Axon Instruments), responsible for data acquisition and storage. Glass micropipettes were produced using glass capillaries (borosilicate WPI 1B120-6) and drawn in a WPI (World Precision Instruments, USA) manual stretcher. The bath and perfusion solutions were either the previously described ND96 (Nav and Kv channels) or calcium-free ND96 supplemented with 10 mM BaCl2 (Cav channels).
(§3) Whole-cell currents of oocytes were recorded 1 to 3 days after injection. Current and voltage electrodes were filled with 3 M KCl and their resistance was adjusted from 0.7 to 2.0 MΩ. Currents were sampled at 20 kHz (Nav channels) and 10 kHz (Kv and Cav channels) and filtered using a four-pole Bessel low-pass Bessel filter, at 1 kHz for sodium, and […] for potassium and calcium, except for the hERG ion channel, in which the currents were filtered at 1 kHz. Leak subtraction was performed using a -P/4 protocol. Kv1.x currents were evoked by 500 ms depolarizations to 0 mV followed by a 500-ms pulse to − 50 mV, from a holding potential of − 90 mV. Kv2.1, Kv3.1, and Kv4.2 currents were elicited by 500 ms pulses to + 20 mV from a holding potential of − 90 mV. Current traces of Kv10.1 were elicited by 2 s depolarization to 0 mV, from a holding potential of − 90 mV. Current traces of hERG1 channel were elicited by applying a + 40 mV prepulse for 2 s followed by a step of − 120 mV for 2 s. Sodium current traces were evoked by a 100 ms depolarization to 0 mV, from a holding potential of − 90 mV. The current–voltage (IV) relationships were determined by 100-ms step depolarizations between − 90 and + 40 mV, using 5 mV increments. […]

hERG1 (Kv11.1) = test: TEVC inhibition, Kv11.1 (hERG1); assay type: cell-based; conditions: human, Xenopus laevis oocytes expressing hERG1 (Kv11.1), pH 7.4, replicate 1
Excerpt: For the expression of Kv channels rat Kv1.1 (GenBank accession number: NM_173095 [88, 89]), rKv1.2 (NM_012970 [90, 91]), human Kv1.3 (NM_002232 [92, 93]), rKv1.4 (NM_012971 [94, 95]), rKv1.6 (NM_023954 [96, 97]), hKv2.1 (NM_004975 [98, 99]), hKv3.1 (NM_004976 [100, 101]), rKv4.2 (NM_031739 [102, 103]), hKv10.1 (NM_172362 [104, 105]), hERG1 [Kv11.1, (NM_000238 [106, 107])], and Shaker IR [from Drosophila melanogaster, (NM_167595 [108, 109])], Nav channels [rNav1.2 (NM_012647 [42, 110]), rNav1.4 (NM_013178 [111, 112]), hNav1.5 (NM_198056 [113, 114]), mNav1.6 (NM_001077499 [115, 116]), BgNav [from Blattella germanica, (DQ466887 [117, 118])] and the auxiliary subunits rβ1 (NM_001271045 [119, 120]), hβ1 (NM_001037 [121, 122]), and TipE [from D. melanogaster, (NM_079196 [109, 123])], and Cav channels hCav3.1 [124, 125], hCav3.2 [126, 127], and hCav3.3 [128, 129] in Xenopus oocytes, the linearized plasmids were transcribed using the T7 or SP6 mMESSAGEmMACHINE transcription kit (Ambion, Austin, TX, USA). […]
Whole-cell currents of oocytes were recorded 1 to 3 days after injection. […] The current–voltage (IV) relationships were determined by 100-ms step depolarizations between − 90 and + 40 mV, using 5 mV increments. […]

rKv1.2 = test: TEVC inhibition, Kv1.2; assay type: cell-based, rat; conditions: 1 µM
Excerpt: as §1, §2, §3

rKv4.2 = test: TEVC inhibition, Kv4.2; assay type: cell-based, rat; set-up: unit not given here; conditions: 1 µM
Excerpt: as §1, §2, §3

Kv1.3 = test: TEVC inhibition, Kv1.3; assay type: cell-based, human; set-up: unit not given here; conditions: 1 µM
Excerpt: as §1, §2, §3

hCav3.3 = test: TEVC inhibition, Cav3.3; assay type: cell-based, human; set-up: unit not given here; conditions: 1 µM
Excerpt: as §1, §2, §3

Row | Sequence | Inhibition data, Kv2.1 (hKv2.1; replicate 1) | Inhibition data, Kv2.1 (hKv2.1; replicate 2) | Inhibition data, Kv2.1 (hKv2.1; replicate 3) | Inhibition data, Kv2.1 (hKv2.1; replicate 4) | inhibition at 1 µM (hERG1 (Kv11.1)) | Inhibition data, Kv1.2 (rKv1.2; replicate 1) | Inhibition data, Kv1.2 (rKv1.2; replicate 2) | Inhibition data, Kv1.2 (rKv1.2; replicate 3) | Inhibition data, Kv4.2 (rKv4.2; replicate 1) | Inhibition data, Kv4.2 (rKv4.2; replicate 2) | Inhibition data, Kv4.2 (rKv4.2; replicate 3) | Inhibition data, Kv4.2 (rKv4.2; replicate 4) | Inhibition data, Kv1.3 (Kv1.3; replicate 1) | Inhibition data, Kv1.3 (Kv1.3; replicate 2) | Inhibition data, Kv1.3 (Kv1.3; replicate 3) | Inhibition data, Kv1.3 (Kv1.3; replicate 4) | Inhibition data, Cav3.3 (hCav3.3; replicate 1) | Inhibition data, Cav3.3 (hCav3.3; replicate 2) | Inhibition data, Cav3.3 (hCav3.3; replicate 3) | Inhibition data, Cav3.3 (hCav3.3; replicate 4) | also measured
1 | RLFCIRHHKYCGHRPKRCCSGLFCRCNTFGTNCRCQSKGALGKLI (disulfide 4-19, 11-24, 18-35, 26-33) [xib1] | 0.0 | 0.0 | 0.0 | 0.0 | 0% | 52.8 | 47.6 | 48.2 | 0.0 | 0.0 | 0.0 | 0.0 | 59.5 | 65.4 | 60.6 | 62.3 | 0.0 | 0.0 | 0.0 | 0.0 | inhibition of Kv1.2 (rKv1.2; Xenopus oocytes, ND96, 18–22 °C, mean ± SEM, n ≥ 3): 50.2 ± 2.6%; Inhibition data, Kv1.2 (rKv1.2; replicate 4): 46.0
2 | KRSCIRRFGRCDHRPNDCCYNSSCRCNLWGSNCRCQRMGLFQKWGK (disulfide 4-19, 11-24, 18-35, 26-33) [xib13] | 0.0 | 0.0 | 0.0 | 0.0 | 0% | 58.6 | 71.3 | 77.9 | 0.0 | 0.0 | 0.0 | 0.0 | 61.2 | 57.8 | 41.4 | 53.4 | 0.0 | 0.0 | 0.0 | 0.0 | 
